test system: Ba/F3 ERBB2 YVMA; experiment: Cell viability assay (CellTiter Glo), Ba/F3 cells engineered to express ERBB2 YVMA; assay type: cell-based; details: Mus musculus, BaF3, 72 h, Ba/F3 cells expressing human ERBB2 YVMA mutant; 72 hours; cell viability, CellTiter Glo; read-out: Ba/F3 ERBB2 YVMA, IC50
Description: Cells were treated with compounds, and cell viability was measured as a metric of kinase inhibition.
BT-474, A431, MDA-MB-175VII, NCI-H1781, MCF7, and Ba/F3 cell lines were tested. The Ba/F3 cell line is IL-3-dependent mouse cell line derived from the C3H mouse strain. Ba/F3 cell lines were engineered to express human ERBB2 or EGFR kinases, rendering the cells IL-3 independent. The lines were generated via retroviral transduction utilizing a Moloney murine leukemia virus (MMLV) promoter, and constructs are stably integrated into the cell genome. The sequences of the ERBB2 and EGFR genes used were NCBI Reference Sequences NM 004448.3 and NM 005228.3, respectively.
BT-474, A431, MDA-MB-175VII, NCI-H1781 and MCF7 cells were grown in the appropriate growth medium as described in Table B2 below, and harvested at 50-80% confluence. BT-474, A431, MDA-MB-175VII, NCI-H1781 and MCF7 cells were counted and seeded at 2,000 or 1,500 cells per well in 384-well tissue culture plates (see Table B2). Similarly, Ba/F3 cell lines engineered to express EGFR, ERBB2, or ERBB2 mutants were grown, harvested, counted and seeded at 3000 cells per well in 96-well plates. A subset of wells contained media only (low control, “LC”).
Table B1 provides the growth media and number of cells seeded per well for the each cell line.
Compounds were dissolved in DMSO and serially diluted. Serially-diluted compound or a DMSO only control (high control, “HC”) was added to the plated cells in each well. Compounds were tested at concentrations of about 10 μM to 0.51 nM, using three-fold dilutions. The final proportion of DMSO never exceeded 0.1%.
Plates were placed in a 37° C., 5% CO2 incubator for 72 hours. Plates were then removed from the incubator and equilibrated for 15 minutes at room temperature. […] of CellTiter Glo reagent (Promega) was added to measure the relative level of metabolically active cells by quantifying intracellular ATP concentrations. Plates were incubated for 30 minutes at room temperature, and luminescence was measured. Percent viability was normalized to a vehicle control only using the following formula: % viability=100×(Lumsample−LumLC)/(LumHC−LumLC). Graphical curves were fitted using a nonlinear regression model with a sigmoidal dose response.

IC50 [nM] | Compound
82.3 | Cc1cc(Nc2ncnc3cc4c(nc23)N2CCN(C(=O)/C=C/CN(C)C)[C@@H](CO4)C2)ccc1Oc1ccn2ncnc2c1 [Compound 15, (E)-1-((10R)-4-((4-([1,2,4]triazolo[1,5-a]pyridin-7-yloxy)-3-methylphenyl)amino)-7,8,10,11-tetrahydro-9H-6,10-methanopyrimido[4′,5′:5,6]pyrido[3,2-b][1,4,7]oxadiazonin-9-yl)-4-(dimethylamino)but-2-en-1-one]
46.7 | Cc1cc(Nc2ncnc3cc4c(nc23)N2CCN(C(=O)/C=C/C3CN(C)C3)[C@H](CO4)C2)ccc1Oc1ccn2ncnc2c1 [Compound 45, (E)-1-((10S)-4-((4-([1,2,4]triazolo[1,5-a]pyridin-7-yloxy)-3-methylphenyl)amino)-7,8,10,11-tetrahydro-9H-6,10-methanopyrimido[4′,5′:5,6]pyrido[3,2-b][1,4,7]oxadiazonin-9-yl)-3-(1-methylazetidin-3-yl)prop-2-en-1-one]
5.54 | CN(C)C/C=C/C(=O)N1CCN2C[C@H]1COc1cc3ncnc(Nc4ccc(Oc5ccn6ncnc6c5)c(F)c4)c3nc12 [Compound 39, (E)-1-((10S)-4-((4-([1,2,4]triazolo[1,5-a]pyridin-7-yloxy)-3-fluorophenyl)amino)-7,8,10,11-tetrahydro-9H-6,10-methanopyrimido[4′,5′:5,6]pyrido[3,2-b][1,4,7]oxadiazonin-9-yl)-4-(dimethylamino)but-2-en-1-one]
> 500 | CC#CC(=O)N1CCN2C[C@@H]1COc1cc3ncnc(Nc4ccc(Oc5ccn6ncnc6c5)c(C)c4)c3cc12 [Compound 17, 1-((10R)-4-((4-([1,2,4]triazolo[1,5-a]pyridin-7-yloxy)-3-methylphenyl)amino)-7,8,10,11-tetrahydro-9H-6,10-methano[1,4,7]oxadiazonino[3,2-g]quinazolin-9-yl)but-2-yn-1-one]
1.29 | Cc1c(Oc2ccn3ncnc3c2)ccc(Nc2ncnc3cc4c(nc23)N2CCN(C(=O)/C=C/CN(C)C)[C@H](CO4)C2)c1F [Compound 35, (E)-1-((10S)-4-((4-([1,2,4]triazolo[1,5-a]pyridin-7-yloxy)-2-fluoro-3-methylphenyl)amino)-7,8,10,11-tetrahydro-9H-6,10-methanopyrimido[4′,5′:5,6]pyrido[3,2-b][1,4,7]oxadiazonin-9-yl)-4-(dimethylamino)but-2-en-1-one]
19.6 | Cc1cc(Nc2ncnc3cc4c(nc23)N2CCN(C(=O)/C=C/[C@@H](C)N(C)C)[C@H](CO4)C2)ccc1Oc1ccn2ncnc2c1 [Compound 29, (4R,E)-1-((10S)-4-((4-([1,2,4]triazolo[1,5-a]pyridin-7-yloxy)-3-methylphenyl)amino)-7,8,10,11-tetrahydro-9H-6,10-methanopyrimido[4′,5′:5,6]pyrido[3,2-b][1,4,7]oxadiazonin-9-yl)-4-(dimethylamino)pent-2-en-1-one]
5.23 | Cc1ccc(Oc2ccc(Nc3ncnc4cc5c(nc34)N3CCN(C(=O)/C=C/CN(C)C)[C@H](CO5)C3)cc2C)cn1 [Compound 21, (E)-4-(dimethylamino)-1-((10S)-4-((3-methyl-4-((6-methylpyridin-3-yl)oxy)phenyl)amino)-7,8,10,11-tetrahydro-9H-6,10-methanopyrimido[4′,5′:5,6]pyrido[3,2-b][1,4,7]oxadiazonin-9-yl)but-2-en-1-one]
222 | C=C(F)C(=O)N1CCN2C[C@H]1COc1cc3ncnc(Nc4ccc(Oc5ccn6ncnc6c5)c(C)c4)c3nc12 [Compound 23, 1-((10S)-4-((4-([1,2,4]triazolo[1,5-a]pyridin-7-yloxy)-3-methylphenyl)amino)-7,8,10,11-tetrahydro-9H-6,10-methanopyrimido[4′,5′:5,6]pyrido[3,2-b][1,4,7]oxadiazonin-9-yl)-2-fluoroprop-2-en-1-one]
10.3 | CN(C)C/C=C/C(=O)N1CCN2C[C@H]1COc1cc3ncnc(Nc4ccc(Oc5ccn6ncnc6c5)cc4F)c3nc12 [Compound 42, (E)-1-((10S)-4-((4-([1,2,4]triazolo[1,5-a]pyridin-7-yloxy)-2-fluorophenyl)amino)-7,8,10,11-tetrahydro-9H-6,10-methanopyrimido[4′,5′:5,6]pyrido[3,2-b][1,4,7]oxadiazonin-9-yl)-4-(dimethylamino)but-2-en-1-one]
14 | CC#CC(=O)N1CCN2C[C@H]1COc1cc3ncnc(Nc4ccc(Oc5ccc6c(c5)ncn6C)c(C)c4)c3nc12 [Compound 16, 1-((10S)-4-((3-methyl-4-((1-methyl-1H-benzo[d]imidazol-5-yl)oxy)phenyl)amino)-7,8,10,11-tetrahydro-9H-6,10-methanopyrimido[4′,5′:5,6]pyrido[3,2-b][1,4,7]oxadiazonin-9-yl)but-2-yn-1-one]
19.9 | CN(C)C/C=C/C(=O)N1CCN2C[C@H]1COc1cc3ncnc(Nc4ccc(Oc5ccn6ncnc6c5)cc4)c3nc12 [Compound 31, (E)-1-((10S)-4-((4-([1,2,4]triazolo[1,5-a]pyridin-7-yloxy)phenyl)amino)-7,8,10,11-tetrahydro-9H-6,10-methanopyrimido[4′,5′:5,6]pyrido[3,2-b][1,4,7]oxadiazonin-9-yl)-4-(dimethylamino)but-2-en-1-one]

More lines, now with the values behind:

Compound | IC50 [nM]
Cc1cc(Nc2ncnc3cc4c(nc23)N2CCN(C(=O)/C=C/CN(C)C)CC(CO4)C2)ccc1Oc1ccn2ncnc2c1 (stereo not shown) [Compound 57, (E)-1-(4-((4-([1,2,4]triazolo[1,5-a]pyridin-7-yloxy)-3-methylphenyl)amino)-7,8,11,12-tetrahydro-6,11-methanopyrimido[4′,5′:5,6]pyrido[3,2-b][1,4,7]oxadiazecin-9(10H)-yl)-4-(dimethylamino)but-2-en-1-one] | 173
Cc1cc(Nc2ncnc3cc4c(nc23)N2CCN(C(=O)/C=C/CN(C)C)[C@H](CO4)C2)ccc1Oc1ccn2ncnc2c1 [Compound 10, (E)-1-((10S)-4-((4-([1,2,4]triazolo[1,5-a]pyridin-7-yloxy)-3-methylphenyl)amino)-7,8,10,11-tetrahydro-9H-6,10-methanopyrimido[4′,5′:5,6]pyrido[3,2-b][1,4,7]oxadiazonin-9-yl)-4-(dimethylamino)but-2-en-1-one] | 7.02
CC#CC(=O)N1CCN2C[C@H]1COc1cc3ncnc(Nc4ccc(Oc5ccn6ncnc6c5)c(C)c4)c3nc12 [Compound 18, 1-((10S)-4-((4-([1,2,4]triazolo[1,5-a]pyridin-7-yloxy)-3-methylphenyl)amino)-7,8,10,11-tetrahydro-9H-6,10-methanopyrimido[4′,5′:5,6]pyrido[3,2-b][1,4,7]oxadiazonin-9-yl)but-2-yn-1-one] | 21.6
Cc1cc(Nc2ncnc3cc4c(c(F)c23)N2CCN(C(=O)/C=C/CN(C)C)[C@H](CO4)C2)ccc1Oc1ccn2ncnc2c1 [Compound 40, (E)-1-((10S)-4-((4-([1,2,4]triazolo[1,5-a]pyridin-7-yloxy)-3-methylphenyl)amino)-5-fluoro-7,8,10,11-tetrahydro-9H-6,10-methano[1,4,7]oxadiazonino[3,2-g]quinazolin-9-yl)-4-(dimethylamino)but-2-en-1-one] | 29.4
Cc1cc(Nc2ncnc3cc4c(nc23)N2CCN(C(=O)/C=C/CN(C)C)C(CCO4)C2)ccc1Oc1ccn2ncnc2c1 (stereo not shown) [Compound 52, (E)-1-(4-((4-([1,2,4]triazolo[1,5-a]pyridin-7-yloxy)-3-methylphenyl)amino)-7,8,11,12-tetrahydro-6,10-methanopyrimido[4′,5′:5,6]pyrido[3,2-b][1,4,7]oxadiazecin-9(10H)-yl)-4-(dimethylamino)but-2-en-1-one] | 109
Cc1cc(Nc2ncnc3cc4c(cc23)N2CCN(C(=O)/C=C/CN(C)C)[C@H](CO4)C2)ccc1Oc1ccc2c(c1)ncn2C [Compound 7, (E)-4-(dimethylamino)-1-((10S)-4-((3-methyl-4-((1-methyl-1H-benzo[d]imidazol-5-yl)oxy)phenyl)amino)-7,8,10,11-tetrahydro-9H-6,10-methano[1,4,7]oxadiazonino[3,2-g]quinazolin-9-yl)but-2-en-1-one] | 78.7
Cc1cc(Nc2ncnc3cc4c(nc23)N2CCN(C(=O)/C=C/[C@@H](C)N(C)C)[C@H](CO4)C2)c(F)cc1Oc1ccn2ncnc2c1 [Compound 50, (4R,E)-1-((10S)-4-((4-([1,2,4]triazolo[1,5-a]pyridin-7-yloxy)-2-fluoro-5-methylphenyl)amino)-7,8,10,11-tetrahydro-9H-6,10-methanopyrimido[4′,5′:5,6]pyrido[3,2-b][1,4,7]oxadiazonin-9-yl)-4-(dimethylamino)pent-2-en-1-one] | 62.6

same assay, conditions: Mus musculus, BaF3, 72 h, read-out: Ba/F3 ERBB2 YVMA, IC50, nM

Compound | IC50 [nM]
CCOc1cc2ncc(C#N)c(Nc3ccc(OCc4ccccn4)c(Cl)c3)c2cc1NC(=O)/C=C/CN(C)C [Neratinib, neratinib, reference compound] | 3.5
